Our source for the IC50 values is patent US10633419B2, “Immunomodulators” (BRISTOL-MYERS SQUIBB COMPANY, priority 2014, dated 2020).

SMILES strings stand for the structures. Starred links: 1 amine or outer side, 2 acyl side, 3 side chain; linkers in the order of their positions; H or OH if unused. Positions of bridges follow the written chain, without caps; N, C: chain ends. Non-standard residues stand in square brackets, D forms with d. Residues, ends and D or L forms follow the SMILES beside them. Groups on a side chain read outwards from the residue. *: point of attachment. X18 = O=C(O)CCCCCCCCCCCCCCC(=O)N[C@@H](CC(=O)NCCCOCCOCCOCCCN*)C(=O)O; Trp(1-CH2COOH) = N[C@@H](Cc1cn(CC(=O)O)c2ccccc12)C(=O)O; X14 = O=C(O)CCCCCCCCCCNC(=O)CCC(=O)NCCCOCCOCCOCCCN*; C18 diacid = O=C(O)CCCCCCCCCCCCCCCCC(=O)*; γGlu = O=C(O)[C@H](CCC(=O)[*:2])N[*:1]; Hyp = O=C(O)[C@@H]1C[C@@H](O)CN1; dHyp = O=C(O)[C@H]1C[C@H](O)CN1; NMeNle = CCCC[C@H](NC)C(=O)O; Pip = O=C(O)[C@@H]1CCCCN1; NMeA = CN[C@@H](C)C(=O)O; Pra = C#CC[C@H](N)C(=O)O; Aun = NCCCCCCCCCCC(=O)O; Dab = NCC[C@H](N)C(=O)O; Dap = NC[C@H](N)C(=O)O

The first assay deals with T1, PD-L1 (Homo sapiens, UniProt Q9NZQ7).
T1 construct: hPDL1(19-239)-TVMV-His; made in house; host or cells: HEK293T
T1 sequence (Q9NZQ7 with tags, fused parts or gaps): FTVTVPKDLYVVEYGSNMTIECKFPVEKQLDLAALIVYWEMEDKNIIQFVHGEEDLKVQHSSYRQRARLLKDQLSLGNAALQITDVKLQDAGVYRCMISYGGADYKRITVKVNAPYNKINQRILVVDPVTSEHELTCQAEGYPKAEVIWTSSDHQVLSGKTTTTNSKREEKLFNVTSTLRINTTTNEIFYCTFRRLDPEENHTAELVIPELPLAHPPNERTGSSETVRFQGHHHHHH
As to the kind of experiment: PD-1/PD-L1 Homogenous Time-Resolved Fluorescence (HTRF) binding assay (PD-1-Ig/PD-L1-His). Particulars: inhibition of PD-1-Ig binding to PD-L1-TVMV-His; value given as number; read-out: HTRF IC50. The method, boiled down: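 Inhibitors pre-incubated 15 min with PD-L1-His (10 nM final), then PD-1-Ig (20 nM final) added for 15 min in dPBS/0.1% BSA/0.05% Tween-20. Eu-cryptate anti-Ig (1 nM) and APC anti-His (20 nM) added, 30 min equilibration, 665/620 nm HTRF ratio read.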
A general note: TR-FRET usually uses a lanthanide donor and a delayed reading to cut background.
What is called IC50 is the concentration that gives 50% inhibition. For the compound `CCCC[C@H]1C(=O)N(C)[C@@H](CCCC)C(=O)N[C@@H](CC(C)C)C(=O)N[C@H](C(=O)NCCCOCCOCCOCCCNC(=O)CCC(=O)NCCCCCCCCCCC(=O)O)CSCC(=O)N[C@@H](Cc2ccc(O)cc2)C(=O)N(C)[C@@H](C)C(=O)N[C@@H](CC(N)=O)C(=O)N2CCC[C@H]2C(=O)N[C@@H](Cc2cnc[nH]2)C(=O)N[C@@H](CCC(=O)O)C(=O)N2C[C@H](O)C[C@H]2C(=O)N[C@@H](Cc2c[nH]c3ccccc23)C(=O)N[C@@H](CCN)C(=O)N[C@@H](Cc2cn(CC(=O)O)c3ccccc23)C(=O)N1C` [Example 11075] ({CH2CO}-Y[NMeA]NPHE[Hyp]W[Dab][Trp(1-CH2COOH)][NMeNle][NMeNle]LC-X14; thioether N-14), the IC50 worked out at 7.1 nM.
Same read-out and setting: as for `CCCC[C@H]1C(=O)N(C)[C@@H](CCCC)C(=O)N[C@@H](CC(C)C)C(=O)N[C@H](C(=O)NCC(=O)N[C@@H](Cc2cn(CC[C@H](NC(=O)CCCCCCCCCCCCCCCCC(=O)O)C(=O)O)nn2)C(=O)O)CSCC(=O)N[C@@H](Cc2ccc(O)cc2)C(=O)N(C)[C@@H](C)C(=O)N[C@@H](CC(N)=O)C(=O)N2CCC[C@H]2C(=O)N[C@@H](CN)C(=O)N[C@@H](CC(C)C)C(=O)N2C[C@H](O)C[C@H]2C(=O)N[C@@H](Cc2c[nH]c3ccccc23)C(=O)N[C@@H](CCN)C(=O)N[C@@H](Cc2cn(CC(=O)O)c3ccccc23)C(=O)N1C` [Example 14095], the figure is 14 nM.

Staying with this assay, now noted: inhibition of PD-1-Ig binding to PD-L1-TVMV-His; value given as range class; read-out: HTRF IC50.
Turning to `C#CC[C@H](NC(=O)CNC(=O)[C@@H]1CSCC(=O)N[C@@H](Cc2ccc(O)cc2)C(=O)N(C)[C@@H](C)C(=O)N[C@@H](CC(N)=O)C(=O)N2CCC[C@H]2C(=O)N[C@@H](CN)C(=O)N[C@@H](CC(C)C)C(=O)N2C[C@H](O)C[C@H]2C(=O)N[C@@H](Cc2c[nH]c3ccccc23)C(=O)N[C@@H](CCN)C(=O)N[C@@H](Cc2cn(CC(=O)O)c3ccccc23)C(=O)N(C)[C@@H](CCCC)C(=O)N(C)[C@@H](CCCC)C(=O)N[C@@H](CCC(=O)O)C(=O)N1)C(=O)O` [INT130AD] ({CH2CO}-Y[NMeA]NP[Dap]L[Hyp]W[Dab][Trp(1-CH2COOH)][NMeNle][NMeNle]ECG[Pra]-OH; thioether N-14), the IC50 is 10 to 99 nM.
On to `CCCC[C@H]1C(=O)N(C)[C@@H](CCCC)C(=O)N[C@@H](CC(C)C)C(=O)N[C@H](C(=O)NCC(=O)N[C@@H](CCNC(=O)CC[C@H](NC(=O)CCCCCCCCCCCCCCCCC(=O)O)C(=O)O)C(=O)O)CSCC(=O)N[C@@H](Cc2ccc(OC)cc2)C(=O)N2CCCC[C@H]2C(=O)N[C@@H](CC(N)=O)C(=O)N2CCC[C@H]2C(=O)N[C@@H](Cc2c[nH]cn2)C(=O)N[C@@H](CC(C)C)C(=O)N2C[C@H](O)C[C@H]2C(=O)N[C@@H](Cc2c[nH]c3ccccc23)C(=O)N[C@@H](CCN)C(=O)N[C@@H](Cc2cn(CC(=O)O)c3ccccc23)C(=O)N1C` [Example 13151] ({CH2CO}-Y(Me)[Pip]NPHL[Hyp]W[Dab][Trp(1-CH2COOH)][NMeNle][NMeNle]LCG[Dab]([γGlu-C18 diacid])-OH; thioether N-14), for which the IC50 lay within 10 to 99 nM.
Same read-out and setting: as for `CCCC[C@H]1C(=O)N(C)[C@@H](CCCC)C(=O)N[C@@H](CC(C)C)C(=O)N[C@H](C(=O)NCCCOCCOCCOCCCNC(=O)C[C@H](NC(=O)CCCCCCCCCCCCCCC(=O)O)C(=O)O)CSCC(=O)N[C@@H](Cc2ccc(O)cc2)C(=O)N(C)[C@@H](C)C(=O)N[C@@H](CC(N)=O)C(=O)N2CCC[C@@H]2C(=O)N[C@@H](CN)C(=O)N[C@@H](CC(C)C)C(=O)N2C[C@@H](O)C[C@@H]2C(=O)N[C@@H](Cc2c[nH]c3ccccc23)C(=O)N[C@@H](CCN)C(=O)N[C@@H](Cc2cn(CC(=O)O)c3ccccc23)C(=O)N1C` [Example 11242] ({CH2CO}-Y[NMeA]N[dP][Dap]L[dHyp]W[Dab][Trp(1-CH2COOH)][NMeNle][NMeNle]LC-X18; thioether N-14), the figure is 10 to 99 nM; as for `CCCC[C@H]1C(=O)N(C)[C@@H](CCCC)C(=O)N[C@@H](CC(C)C)C(=O)N[C@H](C(=O)NCCCCCCCCCCC(=O)N[C@@H](CCC(=O)O)C(=O)O)CSCC(=O)N[C@@H](Cc2ccc(O)cc2)C(=O)N(C)[C@@H](C)C(=O)N[C@@H](CC(N)=O)C(=O)N2CCC[C@H]2C(=O)N[C@@H](Cc2cnc[nH]2)C(=O)N[C@@H](CCC(=O)O)C(=O)N2C[C@H](O)C[C@H]2C(=O)N[C@@H](Cc2c[nH]c3ccccc23)C(=O)N[C@@H](CCN)C(=O)N[C@@H](Cc2c[nH]c3ccccc23)C(=O)N1C` [Example 11130] ({CH2CO}-Y[NMeA]NPHE[Hyp]W[Dab]W[NMeNle][NMeNle]LC[Aun]E-OH; thioether N-14), 10 to 99 nM.
